The NIST ThermoML archive (doi:10.1016/j.fluid.2011.11.022)

Conditions: Liquid; for mass density: Buoyancy - hydrostatic balance; for viscosity: Falling or rolling sphere viscometry

OCCO [1,2-ethanediol]
Conditions | mass density [kg/m3] | viscosity [mPa·s]
293.15 K, 98 kPa | 1113.58 | 21.1
293.15 K, 49030 kPa | 1134.56 | 26.75
293.15 K, 98060 kPa | 1147.72 | 33.42
293.15 K, 147100 kPa | 1159.85 | 41.19
293.15 K, 196130 kPa | 1173.34 | 50.33
293.15 K, 245160 kPa | 1185.44 | 60.43
312.46 K, 98 kPa | 1100.88 | 9.925
312.46 K, 98060 kPa | 1139.02 | 14.82
312.49 K, 49030 kPa | 1123.04 | 12.24
312.49 K, 147100 kPa | 1153.18 | 17.64
312.65 K, 245160 kPa | 1179.39 | 24.69
334.87 K, 98 kPa | 1085.13 | 4.949
335 K, 49030 kPa | 1108.43 | 5.952
335.3 K, 98060 kPa | 1127.05 | 7.031
335.35 K, 245160 kPa | 1169.07 | 11.15
335.43 K, 147100 kPa | 1143.57 | 8.234
335.45 K, 196130 kPa | 1156.71 | 9.608
349.24 K, 98 kPa | 1074.46 | 3.517
349.5 K, 49030 kPa | 1098.33 | 4.157
349.65 K, 98060 kPa | 1118.59 | 4.89
349.67 K, 147100 kPa | 1136.69 | 5.688
349.8 K, 196130 kPa | 1149.28 | 6.541
349.91 K, 245160 kPa | 1161.91 | 7.454
365.7 K, 98 kPa | 1061.7 | 2.39
366.1 K, 49030 kPa | 1086.11 | 2.816
366.15 K, 98060 kPa | 1107.99 | 3.302
366.37 K, 147100 kPa | 1127.71 | 3.812
366.48 K, 196130 kPa | 1139.94 | 4.344
366.8 K, 245160 kPa | 1153.08 | 4.889
380.15 K, 98060 kPa | 1098.24 | 2.558
380.82 K, 98 kPa | 1049.47 | 1.872
381 K, 49030 kPa | 1074.54 | 2.207
381.2 K, 196130 kPa | 1131.06 | 3.345
381.27 K, 147100 kPa | 1118.88 | 2.932
381.3 K, 245160 kPa | 1145.04 | 3.784
395.55 K, 98 kPa | 1037.07 | 1.419
395.6 K, 49030 kPa | 1062.66 | 1.673
395.61 K, 98060 kPa | 1086.68 | 1.936
395.65 K, 147100 kPa | – | 2.214
395.73 K, 196130 kPa | 1121.71 | 2.501
395.8 K, 245160 kPa | 1136.57 | 2.811
421.7 K, 98 kPa | 1013.93 | 0.96
421.71 K, 49030 kPa | 1040.05 | 1.174
421.8 K, 98060 kPa | 1065.2 | 1.345
421.9 K, 147100 kPa | 1090.87 | 1.521
422 K, 196130 kPa | – | 1.716
422 K, 245160 kPa | 1120.22 | 1.898
464.4 K, 98 kPa | 972.98 | 0.652
464.47 K, 98060 kPa | 1025.08 | 0.97
464.53 K, 196130 kPa | 1069.52 | 1.203
464.53 K, 245160 kPa | 1090.75 | 1.356
464.54 K, 147100 kPa | 1055.29 | 1.11
464.6 K, 49030 kPa | 999.13 | 0.877

OCCOCCOCCO [triethylene glycol]
Conditions | mass density [kg/m3] | viscosity [mPa·s]
298.15 K, 98 kPa | 1119.75 | 36.82
298.15 K, 49030 kPa | 1143.46 | 55.23
298.15 K, 98060 kPa | 1161.38 | 80.29
298.15 K, 147100 kPa | 1175.25 | 114.4
298.15 K, 196130 kPa | 1189.31 | 160.6
298.15 K, 245160 kPa | 1200.31 | 221.8
312.96 K, 98 kPa | 1109.61 | 19.03
313.05 K, 49030 kPa | 1134.18 | 27.42
313.1 K, 98060 kPa | 1152.38 | 38.28
313.18 K, 147100 kPa | 1166.44 | 52.5
313.25 K, 196130 kPa | 1180.35 | 70.68
313.26 K, 245160 kPa | 1191.47 | 93.99
334.96 K, 98 kPa | 1093.69 | 9.002
335.11 K, 49030 kPa | 1119.52 | 12.45
335.14 K, 98060 kPa | 1138.49 | 16.7
335.2 K, 147100 kPa | 1153.34 | 22.03
335.25 K, 196130 kPa | 1167.46 | 28.48
335.26 K, 245160 kPa | 1178.87 | 36.37
349.25 K, 98 kPa | 1082.8 | 5.945
349.94 K, 196130 kPa | 1158.94 | 17.53
349.98 K, 49030 kPa | 1109.01 | 8.061
349.98 K, 98060 kPa | 1128.74 | 10.66
349.99 K, 245160 kPa | 1170.6 | 21.84
350.03 K, 147100 kPa | 1144.4 | 13.75
364.44 K, 98 kPa | 1070.74 | 4.131
364.44 K, 49030 kPa | 1098.31 | 5.537
364.72 K, 98060 kPa | 1118.72 | 7.149
365.03 K, 147100 kPa | 1135.26 | 9.021
365.07 K, 196130 kPa | 1150.26 | 11.24
365.2 K, 245160 kPa | 1162.2 | 13.8
413.73 K, 98 kPa | 1028.27 | 1.679
414 K, 49030 kPa | 1058.03 | 2.179
414.15 K, 98060 kPa | 1082.77 | 2.836
414.27 K, 147100 kPa | 1104.57 | 3.32
414.3 K, 196130 kPa | 1122.57 | 3.995
414.43 K, 245160 kPa | 1136 | 4.485
462.25 K, 98 kPa | 981.42 | 0.997
462.26 K, 49030 kPa | 1013.43 | 1.303
462.32 K, 98060 kPa | 1044.24 | 1.614
462.41 K, 147100 kPa | 1073.54 | 1.941
462.45 K, 196130 kPa | 1096.35 | 2.3
462.58 K, 245160 kPa | 1111.83 | 2.678

OCCOCCO [diethylene glycol]
Conditions | mass density [kg/m3] | viscosity [mPa·s]
293.15 K, 98 kPa | 1117.04 | 36.52
293.15 K, 49030 kPa | 1137.67 | 52.72
293.15 K, 98060 kPa | 1158.16 | 74.16
293.15 K, 147100 kPa | 1171 | 102.6
293.15 K, 196130 kPa | 1184.89 | 139.9
293.15 K, 245160 kPa | 1196.63 | 187.3
298.15 K, 98 kPa | 1114.02 | 28.36
298.15 K, 49030 kPa | 1135.41 | 40.36
298.15 K, 98060 kPa | 1155.68 | 56.52
298.15 K, 147100 kPa | 1168.88 | 77.16
298.15 K, 196130 kPa | 1182.6 | 103.8
298.15 K, 245160 kPa | 1194.5 | 138.3
312.6 K, 98 kPa | 1104.9 | 15.25
312.62 K, 49030 kPa | 1128.43 | 21.04
312.63 K, 98060 kPa | 1148.18 | 28.2
312.67 K, 147100 kPa | 1162.46 | 37.14
312.71 K, 196130 kPa | 1175.84 | 48.29
312.75 K, 245160 kPa | 1188.18 | 62.07
329.28 K, 98 kPa | 1093.62 | 8.458
329.33 K, 98060 kPa | 1138.99 | 14.73
329.33 K, 196130 kPa | 1167.96 | 23.82
329.33 K, 245160 kPa | 1180.84 | 29.61
329.38 K, 49030 kPa | 1119.54 | 11.29
329.38 K, 147100 kPa | 1154.56 | 18.83
344.99 K, 98 kPa | 1082.27 | 5.34
345.2 K, 49030 kPa | 1110.34 | 7.062
345.38 K, 98060 kPa | 1129.61 | 8.969
345.47 K, 147100 kPa | 1146.46 | 11.23
345.61 K, 196130 kPa | 1160.06 | 13.81
345.78 K, 245160 kPa | 1173.38 | 16.75
349.77 K, 98 kPa | 1078.67 | 4.809
350.06 K, 49030 kPa | 1107.36 | 6.25
350.13 K, 147100 kPa | 1144.02 | 9.866
350.16 K, 98060 kPa | 1126.71 | 7.904
350.4 K, 196130 kPa | 1157.71 | 12.04
366.77 K, 98 kPa | 1065.35 | 3.231
367.13 K, 49030 kPa | 1096.31 | 4.124
367.26 K, 147100 kPa | 1134.7 | 6.331
367.3 K, 98060 kPa | 1115.94 | 5.145
367.37 K, 196130 kPa | 1149.25 | 7.607
367.61 K, 245160 kPa | 1163.2 | 9.086
413.65 K, 98 kPa | 1024.3 | 1.409
413.8 K, 49030 kPa | 1061.47 | 1.78
413.93 K, 98060 kPa | 1083.55 | 2.153
414.01 K, 147100 kPa | 1106.4 | 2.554
414.09 K, 196130 kPa | 1124.99 | 2.987
414.29 K, 245160 kPa | 1140.38 | 3.474
463.94 K, 98060 kPa | 1043.8 | 1.218
463.99 K, 49030 kPa | 1016.46 | 1.002
464.05 K, 98 kPa | 973.11 | 0.789
464.09 K, 147100 kPa | 1071.5 | 1.432
464.2 K, 196130 kPa | 1097.41 | 1.655
464.37 K, 245160 kPa | 1114.3 | 1.879
